The source of these data is BindingDB's records for doi:10.1021/acschembio.7b00062 (Philipps-Universität Marburg, 2017).

As usually defined, the Kd is the concentration at which binding is half-saturated. A higher Kd goes with weaker binding.

The target in this assay is Aldo-keto reductase family 1 member B1 (Homo sapiens, UniProt P15121). In words: SPR Assay. The following applies: pH 8.5. On the procedure: The anti-His antibody (His Capture Kit, GE Healthcare) was immobilized on sensor chip CM5 (GE Healthcare), in a Biacore T200 or Biacore S200 instrument, to ∼10000 resonance units (RU) using a standard amine coupling procedure (Amine Coupling Kit, GE Healthcare). His-tagged aldose reductase (ALR2), at a concentration of 100 μg/mL, was captured on the anti-His antibody using dual injection consisting of a 3 min injection of protein followed by a 100 s activation with a mixture (1:1) of 0.2 M N-ethyl-N-(dimethylamino)propylcarbodiimide (EDC) and 50 mM N-hydroxysuccinimide (NHS), and final blocking with an injection of 1.0 Methanolamine (pH 8.5) for 100 s. […] For the interaction analysis, the compound concentrations ranged from 3 to 10000 nM with a 5-fold dilution step, using a single-cycle kinetic approach with three or five concentrations or injections per cycle.
In the case of `O=C(O)COc1cc(F)ccc1C(=O)Nc1cccc([N+](=O)[O-])c1` [ALR2 inhibitor, 8], the dissociation constant Kd is 23 nM.

Molecule `NC(=O)[C@@H]1C[C@]2(NC(=O)NC2=O)c2cc(F)ccc2O1` [(2S,4S)-6-fluoro-2,5-dioxo-2,3-dihydrospiro[chromene-4,4-imidazolidine]-2-carboxamide] had a Kd of 16 nM.

In the case of `O=C(O)COc1cc(Cl)ccc1C(=O)NCc1cccc([N+](=O)[O-])c1` [2-(5-chloro-2-{[(3-nitrophenyl)methyl]carbamoyl}phenoxy)acetic acid], binding was characterised by a dissociation constant (Kd) of 14 nM.

With `O=C(O)COc1ccc(-c2ccccc2)cc1C(=O)NCc1cccc([N+](=O)[O-])c1` [ALR2 inhibitor, 11], the Kd was found to be 15 nM.
